The values below come from patent publication US8563503B2, “Antibiotic, its nucleotide sequence, methods of construction and uses thereof” (Protein Design Lab. Ltd., priority 2011, dated 2013).

In brackets after ≈: the same amount, converted by molar mass. Entries after “also recorded” stand apart in the source; their conditions may differ. Where two headings read alike, the source gives them in different places.

In assay [1] the test system is Enterococcus ATCC 700802. Description: MIC against the infecting strain (Table 2). The format is cell-based, Enterococcus faecalis. Particulars: ATCC700802. On the procedure:
(§1) (3) Culture Solution • MH Broth Culture Solution: 25 g was added into […] distilled water, heat to dissolve, subpackaged, autoclaved at 116° C. for 20 minutes, and MH Solid Culture Medium, 36 g was added into 1000 ml distilled water, autoclaved at 116° C. for 20 minutes, used for drug sensitive test of Gram-positive and negative aerobic bacteria. • Blood culture solution for Enterococcus faecalis, which was prepared by adding defibration rabbit blood into the MH culture solution by 5-10% and cultured at 37° C. in 5% CO2 for 24 hours. 2. Experimental Methods (1) The Measurement of Minimum Inhibitory Concentration (MIC) • The Minimum Inhibitory Concentration (MIC) of PMC-SA1 was measured by Agar Doubling Dilution Method. The bacterium was inoculated on the surface of agar plate containing different concentration of drugs by multipoint inoculate instrument (Deneley A400). The bacterial content per point was 10^5 CFU/ml. After incubated at 37° C. for 18-24 hours, the result can be observed. The least concentration of drugs in plate culture solution without bacterium growing was Minimum Inhibitory Concentration (MIC) of the drug to the said bacteria. 3. Results

The test system of assay [2] is Enterococcus ATCC 700802. The assay is described as follows: Protection test in vivo (intravenous injection) of infected mice. More on the design: species or system Kungming mice. How it is done:
(§2) The drugs used in this embodiment were same with that used in embodiment 4.
(§3) The above drugs were dissolved and diluted by sterilized water, and the injection concentrations of each drug were 10 mg/kg, 5 mg/kg and 2.5 mg/kg.
(§4) After given intraperitoneal injection of fatal dose of above-mentioned bacteria, the mice of each drug experimental group respectively were given once intravenous injection of the drug by 10 mg, 5 mg, 2.5 mg/kg. The results were observed per 24 hours for 7-14 days. The positive result is mice's death.

For assay [3], the system named is Staphylococcus aureus MRSA BAA-42. Described as above. More on the design: species or system Kungming mice. On the procedure:
as §2, §3, §4

In assay [4] the test system is Staphylococcus aureus ATCC 29213. The assay is described as above. More on the design: species or system Kungming mice. On the procedure:
as §2, §3, §4

Assay [5] has as its system E. coli 02-1-65. The assay is described as above. More on the design: species or system Kungming mice. On the procedure:
as §2, §3, §4

Assay [6] has as its system Staphylococcus aureus MRSA BAA-42. Description: MIC against the infecting strain (Table 2). The class given is cell-based. How it is done: as §1
Assay [7] relates to Staphylococcus aureus ATCC 29213. Description: MIC against the infecting strain (Table 2). Particulars: ATCC29213. The class given is cell-based. On the procedure: as §1
For assay [8], the system named is E. coli 02-1-65. Description: MIC against the infecting strain (Table 2). The class given is cell-based. How it is done: as §1
The next assay deals with E. coli. The assay is described as follows: MIC by Agar Doubling Dilution Method, clinical isolates. The class given is cell-based. How it is done: as §1
Assay [9] relates to Staphylococcus epidermidis (MRSE). The description is as above. The class given is cell-based. How it is done:
as §1

Assay [10] has as its system Staphylococcus epidermidis (MSSE strain). Described as above. The format is cell-based. On the procedure:
as §1

The subject of the next assay is Baumanii. Described as above. The format is cell-based. On the procedure: as §1
The test system of assay [11] is Staphylococcus aureus (MSSA). The assay is described as above. The class given is cell-based. How it is done:
as §1

Assay [12] has as its system Staphylococcus aureus (MRSA). Described as above. The format is cell-based. How it is done: as §1
Another assay has as its system Enterococcus. The assay is described as above. The format is cell-based, Enterococcus faecalis. How it is done:
as §1

For assay [13], the system named is Staphylococcus epidermidis reference culture No. 26069. The assay is described as follows: Bacteria growth curve (A595 nm cloudiness), Staphylococcus epidermidis. The format is cell-based. Particulars: drug 2 μg/ml, 37° C., A595 nm per hour. How it is done: The bacterium is Staphylococcus epidermidis reference culture No. 26069, purchased from China Center of Culture Collection (National Institute for the Control of Pharmaceutical and Biological Products). 3 microliter of bacterium solution (10^6 CFU/ml level bacterium amount) was added into 10 ml culture solution containing 1% peptone, 1% NaCl, 0.5% yeast extract, 0.5% glucose and 0.1% K2HPO4. Totally four groups were prepared. The first group as control was added 0.3M NaCl+50 mM boric acid buffer fluid by the same volume with that of antibiosis polypeptide liquid added in any experimental groups, the second group was added penicillin G sodium by 2 μg/ml, PMC-SA1 and PMC-SE was added in the other experimental groups by 2 μg/ml (0.3 M NaCl+50 mM boric acid buffer fluid was preservative fluid).
The solution of above groups was put into 100 ml conical flask, 200 rpm, grew at 37° C. 100 μl was sampled per hour, and added onto 96-pore ELISA plate to measure bacteria grown cloudiness by spectrophotometer (A595 nm) color comparison. The bacteria growth curve was drawn up to compare the bacteriostasis efficacy of the novel antibiotics.

For assay [14], the system named is methicillin-resistant Staphylococcus aureus ATCC BAA-42. Description: Bacteria growth curve (A595 nm), comparison of the novel antibiotics. The class given is cell-based. Particulars: drug 5 μg/ml, 37° C., A595 nm per hour. How it is done: The following experiment was set for comparing bacteriostasis effects of 6 kinds of the novel antibiotics. The experimental bacteriaum was United States Standard Strain methicillin-resistant Staphylococcus aureus ATCC BAA-42. 5 microliter of bacteria solution (10^6 CFU/ml level bacterium amount) was added into 10 ml culture solution containing 1% peptone, 1% NaCl, 0.5% yeast extract, 0.5% glucose and 0.1% K2HPO4, total of 8 groups were prepared. The first group as control was added 0.3 M NaCl+50 mM boric acid buffer fluid by the same volume as that of antibiosis polypeptide liquid added in any experimental groups, the second group was added penicillin G sodium by 5 μg/ml, PMC-SA1, PMC-SA2, PMC-SA3, PMC-SA4, PMC-SE and PMC-PA were added in the other experimental groups with preservative fluid being 0.3 M NaCl+50 mM boric acid buffer fluid by 5 ug/ml.
The solution of above groups was put into 100 ml conical flask, 200 rpm, grew at 37° C. 100 μl was sampled per hour, and added onto 96-pore ELISA plate and measured bacteria grown cloudiness by spectrophotometer (A595 nm) color comparison. The bacteria growth curve was drawn up to compare the bacteriostasis efficacy of antibiosis polypeptide.

The mark [15] stands for this setting: Staphylococcus epidermidis, MRSE.

Turning to `CN[C@H](CC(C)C)C(=O)N[C@H]1C(=O)N[C@@H](CC(N)=O)C(=O)N[C@H]2C(=O)N[C@H]3C(=O)N[C@H](C(=O)N[C@H](C(=O)O)c4cc(O)cc(O)c4-c4cc3ccc4O)[C@H](O)c3ccc(c(Cl)c3)Oc3cc2cc(c3O[C@@H]2O[C@H](CO)[C@@H](O)[C@H](O)[C@H]2O[C@H]2C[C@](C)(N)[C@H](O)[C@H](C)O2)Oc2ccc(cc2Cl)[C@H]1O` [Vancomycin], the MIC against Enterococcus ATCC 700802 [1] was over 16 µg/mL; in assay [6] (Staphylococcus aureus), 0.5 µg/mL (≈ 0.345 µM); in assay [7], 0.5 µg/mL (≈ 0.345 µM); in the assay on E. coli 02-1-65 [8] (Escherichia coli, 02165), 128 µg/mL (≈ 88.3 µM); in the assay with E. coli (Escherichia coli, read-out: Scope of MIC), over 128 µg/mL; in assay [9] (Staphylococcus epidermidis, MRSE, read-out: Scope of MIC), 0.25 to 2 µg/mL (≈ 0.173 to 1.38 µM). Besides, the minimal inhibitory concentration (MIC) in assay [10] (Staphylococcus epidermidis, read-out: Scope of MIC) lay in the range of 0.06 to 0.5 µg/mL (≈ 0.0414 to 0.345 µM); in assay [11] (Staphylococcus aureus, MSSA, read-out: Scope of MIC), 0.03 to 1 µg/mL (≈ 0.0207 to 0.69 µM); in [12] (Staphylococcus aureus, MRSA, read-out: Scope of MIC), 0.004 to 2 µg/mL (≈ 0.00276 to 1.38 µM); in the assay with Enterococcus (Enterococcus, read-out: Scope of MIC), 0.5 to 50 µg/mL (≈ 0.345 to 34.5 µM). In addition, the median effective dose (ED50) is 3.66 mg/kg in the assay with Enterococcus ATCC 700802 [2] (Enterococcus, ATCC700802); 3.54 mg/kg in assay [3] (Staphylococcus aureus); 2.42 mg/kg in [4] (Staphylococcus aureus, ATCC29213); over 40.1 mg/kg with E. coli 02-1-65 [5] (Escherichia coli, 02165). Also, the MIC50 against E. coli (Escherichia coli) was over 128 µg/mL; in assay [9] (setting [15]), 0.5 µg/mL (≈ 0.345 µM); in [10] (Staphylococcus epidermidis), 0.5 µg/mL (≈ 0.345 µM); with Baumanii, over 128 µg/mL; in [11] (Staphylococcus aureus, MSSA) it was 0.5 µg/mL (≈ 0.345 µM); in [12] (Staphylococcus aureus, MRSA) it was 0.25 µg/mL (≈ 0.173 µM). Moreover, the MIC50 against Enterococcus (Enterococcus) stood at 1 µg/mL (≈ 0.69 µM). Besides, the MIC90 in the assay on E. coli (Escherichia coli) is over 128 µg/mL; in assay [9] (setting [15]), 1 µg/mL (≈ 0.69 µM); in assay [10] (Staphylococcus epidermidis) it was 0.5 µg/mL (≈ 0.345 µM); in the assay with Baumanii, over 128 µg/mL; in [11] (Staphylococcus aureus, MSSA) it was 1 µg/mL (≈ 0.69 µM); in assay [12] (Staphylococcus aureus, MRSA), 1 µg/mL (≈ 0.69 µM). In the assay on Enterococcus (Enterococcus), this molecule returned an MIC90 of 2 µg/mL (≈ 1.38 µM).

`CC1(C)S[C@@H]2[C@H](NC(=O)[C@H](N)c3ccccc3)C(=O)N2[C@H]1C(=O)[O-].[Na+]` [Ampicillin, Ampicillin Sodium]: the minimal inhibitory concentration (MIC) was 2.5 µg/mL in the assay with Enterococcus ATCC 700802 [1], 16 µg/mL in [6] (Staphylococcus aureus MRSA BAA-42), 1.5 µg/mL in [7] and over 128 µg/mL in the assay on E. coli 02-1-65 [8] (E. coli 02-1-65). For the same molecule, the ED50 in the assay with Enterococcus ATCC 700802 [2] (mice, infected with 7.0 × 10^6 cfu/ml i.p., drug once intravenous) is recorded as 3.00 mg/kg; in assay [3] (mice, infected with 6.5 × 10^5 cfu/ml i.p., drug once intravenous), 25.41 mg/kg; in assay [4] (mice, infected with 4.6 × 10^5 cfu/ml i.p., drug once intravenous) it was 14.05 mg/kg; in the assay on E. coli 02-1-65 [5] (mice, infected with 3.8 × 10^5 cfu/ml i.p., drug once intravenous), over 32 mg/kg. The MIC50 was over 128 µg/mL against E. coli (E. coli clinical strains); 16 µg/mL in [9] (MRSE clinical strains); 0.03 µg/mL in assay [10] (MSSE clinical strains); over 128 µg/mL in the assay with Baumanii (Baumanii clinical strains); 0.25 µg/mL in assay [11] (MSSA clinical strains); 16 µg/mL in assay [12] (MRSA clinical strains). In addition, the MIC50 against Enterococcus (Enterococcus clinical strains) is 0.5 µg/mL. Further, the MIC90 against E. coli (E. coli clinical strains) was over 128 µg/mL; in assay [9] (MRSE clinical strains) it was 64 µg/mL; in assay [10] (MSSE clinical strains) it was 0.25 µg/mL; in the assay on Baumanii (Baumanii clinical strains) it was over 128 µg/mL; in [11] (MSSA clinical strains), 1 µg/mL; in [12] (MRSA clinical strains), 32 µg/mL. The molecule further had an MIC90 in the assay with Enterococcus (Enterococcus clinical strains) of 16 µg/mL. Also, the “Scope of MIC” value in [9] (MRSE clinical strains) is 0.06 to 64 µg/mL; in [11] (MSSA clinical strains), <0.015-0.025 ^ mg/L; in assay [12] (MRSA clinical strains), 0.06 to 64 µg/mL; with Enterococcus (Enterococcus clinical strains) it was 0.25 to 16 µg/mL.

B1: PMC-SE: Staphylococcus epidermidis pheromone linked to C-terminus of allosteric colicin Ia′; SEQ ID NO. 21; plasmid pBHC-SE (protein)
chain: SDPVRITNPAAESLGYDSDGREIMGVDIYLNPPRVDVFKGTPPAWSSFGNKTIWGGNEWVDDSPTRSDIEKRDKEITAYKNTLSAQQKENENKRTEAGKRLSAAIAAREKDENTLKTLRAGNADAADITRQEFRLLQAELREYGFRTEIAGYDALRLHTESRMLFADADSLRISPREARSLIEQAEKRQKDAQNADKKAADMLAEYERRKGILDTRLSELEKNGGAALAVLDAQQARLLGQQTRNDRAISEARNKLSSVTESLNTARNALTRAEQQLTQQKNTPDGKTIVSPEKFPGRSSTNHSIVVSGDPRFAGTIKITTSAVIDNRANLNYLLSHSGLDYKRNILNDRNPVVTEDVEGDKKIYNAEVAEWDKLRQRLLDARNKITSAESAVNSARNNLSARTNEQKHANDALNALLKEKENIRNQLSGINQKIAEEKRKQDELKATKDAINFTTEFLKSVSEKYGAKAEQLAREMAGQAKGKKIRNVEEALKTYEKYRADINKKINAKDRAAIAAALESVKLSDISSNLNRFSRGLGYAGKFTSLADWITEFGKAVRTENWRPLFVKTETIIAGNAATALVALVFSILTGSALGIIGYGLLMAVTGALIDESLVEKANKFWGIDSVCASYF
modifications: The peptide of PMC-SE
notes: Staphylococcus epidermidis pheromone linked to C-terminus of allosteric colicin Ia′; 21; plasmid pBHC-SE
As for B1, the “growth of Staphylococcus epidermidis (bacteria growth curve)” value in assay [13] is “effectively restrained; also recorded: completely restrained”. In addition, the “bacteriostasis effect on growth of methicillin-resistant Staphylococcus aureus (bacteria growth curve)” value in assay [14] is reported as “less better”.
